According to patent publication US6689777B2 (Kenneth S. Warren Institute, priority 2001, dated 2004):
Where a name gives a salt, the structure may show the parent alone. Read-outs that look alike come from different tables or passages of the source.

Assays:
P. falciparum [1] = test: P. falciparum growth in culture ([3H]-hypoxanthine incorporation); format: cell-based; settings: Plasmodium falciparum, read-out: IC50 vs. P. falc.
synthetic hemozoin = test: Depolymerization of synthetic hemozoin in vitro; format: biochemical; settings: 50 mM test compound, acetate buffer pH 5.0, 37° C., 16 hours
Experimental: This activity is evaluated by incubating a suspension of monomer-free hemozoin at 37° C. with compounds of the present invention for 16 hours. After incubation, hemozoin is separated from any solubilized heme and soluble heme oligomers, the oligomers depolymerized, and the heme present in the supernatants determined.
The synthesis of synthetic hemozoin is carried out as previously described (26). In brief, 60 μmoles of hematin was dissolved in 8 ml of 0.1N NaOH. Following dissolution 49 mmoles of glacial acetic acid was added and the suspension heated at 70° C. overnight. The precipitate was then washed extensively with LPS-free water. In order to remove unreacted heme the precipitate was extracted with 0.1M sodium bicarbonate (pH 9.1) for three hours. The remaining insoluble material was recovered by centrifugation, resuspended in EtOH and transferred to sterile Eppendorf tubes. The material was washed several times in EtOH and finally resuspended in LPS-free double-distilled H2O. The hemozoin preparation was then tested for endotoxin by using the Limulus Amebocyte Lysate test following manufacturer's instructions. Although the preparation of LPS-free hemozoin from native or synthetic sources is not critical for in vitro depolymerization studies, it is critical for studies involving monocytes and animals (see Examples below). Small amounts of LPS can evoke a considerable cytokine response and interfere with interpretation of results. The amount of heme in the final product was determined from a small aliquot using the pyridine-hemochrome method as previously described (26). The preparations are stored at 4° C. until used.
A suspension of monomer-free hemozoin (equivalent to 2 mM free heme) as prepared above was incubated at 37° C. with […] test compound in total volume of 500 μl in acetate buffer (pH: 5.0) in siliconized Eppendorf tubes (Brinkmann Instruments, Westbury, N.Y.) for 16 hours. A control sample containing distilled H2O instead of hemozoin was included. The samples were centrifuged at 14,000 rpm (Eppendorf centrifuge model 5415C, Brinkmann Instruments, Westbury, N.Y.) for 20 min; then 225 μl supernatant was diluted in 175 μl acetate buffer (pH 5.0). Another 225 μl was added to 175 μl 0.5 M NaOH to dissolve possible oligomeric depolymerization products to monomers. Half of the pellet was washed twice for 2.5 hr in 200 μl 2.5% SDS (v/v) in dH2O, the other half was washed twice in 200 μl HCO3^− buffer (pH: 9.1). Both sample supernatants and SDS and HCO3^− buffer supernatants were centrifuged 14,000 rpm for 20 min. and supernatants were added to 10 μl sodium dithionite (200 mg/ml dH2O) to reduce the heme monomers in solution to Fe^2+. All samples were measured in triplicate at 540 nm (Model UV1601 spectrophotometer, Shimradzu Corp, Columbia, Md.). The OD obtained from the blind sample was subtracted from the OD of the hemozoin containing sample.

P. falciparum [2] = test: P. falciparum growth in culture ([3H]-hypoxanthine incorporation); format: cell-based; settings: growth in culture, [3H]-hypoxanthine incorporation, read-out: IC50 vs. P. falc.
Experimental: To determine the effectiveness of the compounds of the present invention against the erythrocytic stage of the malarial parasite, P. falciparum was grown in human erythrocyte suspensions and maintained at 37° C. in candle jars according to the method of Trager and Jensen (15,16). Parasites were stage-synchronized by incubating mainly ring-stage infected erythrocytes in 5% sorbitol for 10 minutes at room temperature (17). Cultures undergo one growth cycle (2 days) before use. Strains used include the chloroquine sensitive strains D10 and HB3, and the chloroquine resistant isolates Dd2 and FCR.
Parasite growth was determined by measuring incorporation of [^3H]-hypoxanthine into the nucleic acids of the parasite (18). Effects of the compounds of the present invention on parasite growth was determined by measuring the reduction in incorporation of radiolabel as compared to controls. Briefly, assays are performed in 96-well microtiter plates. After 24 h of candle jar incubation at 37° C., [^3H]-hypoxanthine is added to each well. After 18 h the plates are harvested onto glass fiber filter 96 well plates using a cell harvester, dried, and the amount of radioactivity is determined. Drug IC50 values (molar concentration which decreases [^3H]-hypoxanthine incorporation by 50% as compared to drug-free controls) are calculated by extrapolation of the log dose-response curves using curve fitting software (Origin, Microcal Software, Northampton, Mass.).
Parasites were grown in A^+ human erythrocyte suspensions using RPMI-1640 (GIBCO, Gaithersburg, Md.) medium supplemented by 25 mM HEPES (pH 7.35), 0.2% NaHCO3 (23 mM), 0.2% (D)-Glucose and 10% human A^+ plasma and maintained at 37° C. in candle jars according to the method of Trager and Jensen (20,21) Parasites are stage synchronized by incubating mainly ring-stage infected erythrocytes in 5% sorbitol for 10 minutes at room temperature (22). Cultures undergo one growth cycle (2 days) before use. Strains used include the chloroquine sensitive strains D10 and HB3, and the chloroquine resistant isolates Dd2 and FCR.
Parasite growth was determined by measuring incorporation of [^3H]-hypoxanthine into the nucleic acids of the parasite as previously described (23). Effects of the compounds of the present invention on parasite growth was determined by measuring the reduction in incorporation of radiolabel as compared to controls. Briefly, assays were performed in 96-well microtiter plates, each well containing 200 μl of synchronized ring-stage infected erythrocytes in complete media and 50 μl of drug dilution or solvent. The final hematocrit was 1.5% and percent parasitemias range from 2-8%. After 24 h of candle jar incubation at 37° C., 2.5 μCi of [^3H]-hypoxanthine (17 Ci/mmol, Amersham, Arlington Heights, Ill.) in RPMI-1640 media supplemented with 25 mM HEPES (pH 7.35), 0.2% NaHCO3 (23 mM), 0.2% (D)-Glucose is added to each well. After 18 h the plates were harvested onto glass fiber filter 96 well plates using a cell harvester, dried, and 25 μl scintillation acid added per well. The, amount of radioactivity was determined. Drug IC50 values (molar concentration which decreases [^3H]-hypoxanthine incorporation by 50% as compared to drug-free controls) are calculated by extrapolation of the log dose-response curves using curve fitting software (Origin, Microcal Software, Northampton, Mass.). The effects on parasite grown by aromatic guanyllhydrazones, bisguanylhydrazones, naphthothiazolium salts, and other compounds of the instant invention, together with data on hemozoin depolymerization from Example 5, are shown in tables 1 through 4, respectively.

[3] = Table 3, naphthothiazolium salts, in culture
[4] = Table 1, aryl monoguanylhydrazones, growth in culture
[5] = Table 1, aryl monoguanylhydrazones

Structure (SMILES) | IC50 (P. falciparum [1]; [3]) | % depol. hemoz. (synthetic hemozoin; Table 3) | IC50 (P. falciparum [1]; [4]) | % depol. hemoz. (synthetic hemozoin; Table 1) | other results
Cc1c(O)c2ccccc2c2c1sc(Nc1ccccc1)[n+]2C.[Cl-] [1,2-dihydro-1,4-dimethyl-2-(phenylimino)naphtho[1,2-d]thiazol-5-ol monohydrochloride] | > 10000 nM | 0.0% | – | – | –
Cc1c(O)c2ccccc2c2c1sc(NCCO)[n+]2C.[Cl-] [1,2-dihydro-2-[(2-hydroxyethyl)imino]-1,4-dimethylnaphtho[1,2-d]thiazol-5-ol monohydrochloride] | 1400 nM | 3.1% | – | – | –
C=CCNc1sc2c(C)c(O)c3ccccc3c2[n+]1CC=C.[Cl-] [1,2-dihydro-4-methyl-1-(2-propenyl)-2-(2-propenylimino)naphtho[1,2-d]thiazol-5-ol monohydrochloride] | 6000 nM | 4.8% | – | – | –
Cc1c(O)c2ccccc2c2nc(Nc3ccccc3)sc12.Cl [1,2-dihydro-4-methyl-2-(phenylimino)naphtho[1,2-d]thiazol-5-ol monohydrochloride] | 4200 nM | 0.0% | – | – | –
CCNc1sc2c(C)c(O)c3ccccc3c2[n+]1CC.[Cl-] [1-ethyl-2-(ethylimino)-1,2-dihydro-4-methylnaphtho[1,2-d]thiazol-5-ol monohydrochloride] | 2500 nM | 2.4% | – | – | –
Cl.Cl.N=C(N)NN=C1CCC(=NNC(=N)N)CC1 [2,2′-(1,4-cyclohexanediylidene)bis(hydrazinecarboximidamide) dihydrochloride] | – | – | – | – | IC50 (P. falciparum [1]; Table 4, in culture): 2000 nM; % depol. hemoz. (synthetic hemozoin; Table 4): 0%
CC(=NNC(=N)N)c1cccc(C(C)=NNC(=N)N)c1N [2,2′-[(2-amino-1,3-phenylene)diethylidyne]bis(hydrazinecarboximidamide) dihydrochloride] | – | – | – | – | IC50 (P. falciparum [2]; Table 2, aromatic bisguanylhydrazones): 6300 nM
C/C(=N\NC(=O)CN(C)C)c1cccc(/C(C)=N/NC(=O)CN(C)C)n1.Cl.Cl [2,6-bis[1-[[(dimethylamino)acetyl]hydrazono]ethyl]pyridine dihydrochloride] | – | – | – | – | IC50 (P. falciparum [1]; Table 4, in culture): 1500 nM; % depol. hemoz. (synthetic hemozoin; Table 4): 0%
Cc1c(O)c2ccccc2c2c1sc(NC1CCCCC1)[n+]2CCO.[Cl-] [2-(cyclohexylimino)-5-hydroxy-4-methylnaphtho[1,2-d]thiazole-1(2H)-ethanol monohydrochloride] | 1000 nM | 0.4% | – | – | –
CC(=NNC(=N)N)c1ccc(OCc2ccccc2)c(C)c1O.Cl [2-[1-(4-benzyloxy-2-hydroxy-3-methylphenyl)ethylidene]hydrazinecarboximidamide hydrochloride] | – | – | 1330 nM | 1.9% | –
CC(CCC1=C(C)C(=O)c2ccccc2C1=O)=NNC(=N)N.Cl [2-[3-(1,4-dihydro-1,4-dioxo-3-methyl-2-naphthalenyl)-1-methylpropylidene]hydrazinecarboximidamide hydrochloride] | – | – | – | – | IC50 (P. falciparum [1]; Table 4, in culture): 1300 nM; % depol. hemoz. (synthetic hemozoin; Table 4): 0.1%
CC1=CC(=O)c2cc(CC=NNC(=N)N)ccc2C1=O.Cl [2-[(1,4-dihydro-1,4-dioxo-3-methyl-7-naphthalenyl)ethylidene]hydrazinecarboximidamide hydrochloride] | – | – | 1800 nM | 0.4% | –
N=C(N)NN=CCc1ccc2ccccc2c1O [2-[(1-hydroxy-2-naphthyl)ethylidene]hydrazinecarboximidamide hydrochloride] | – | – | 6000 nM | – | –
Cl.N=C(N)NN=Cc1cccc(O)c1O [2-[(2,3-dihydroxyphenyl)methylene]hydrazinecarboximidamide hydrochloride] | – | – | > 10000 nM | 4.1% | –
COc1ccc(C=NNC(=N)N)c(O)c1 [2-[(2-hydroxy-4-methoxyphenyl)methylene]hydrazinecarboximidamide hydrochloride] | – | – | 1000 nM | – | –
COc1ccc(O)c(C=NNC(=N)N)c1.Cl [2-[(2-hydroxy-5-methoxyphenyl)methylene]hydrazinecarboximidamide hydrochloride] | – | – | 4400 nM | 0.9% | –
Cl.N=C(N)NN=CCc1ccccc1O [2-[(2-hydroxyphenyl)ethylidene]hydrazinecarboximidamide hydrochloride] | – | – | > 10000 nM | 0.4% | –
Cl.N=C(N)NN=Cc1ccccc1O [2-[(2-hydroxyphenyl)methylene]hydrazinecarboximidamide hydrochloride] | – | – | 3500 nM | 3.5% | –
Cl.N=C(N)NN=CCc1ccc(O)c(O)c1 [2-[(3,4-dihydroxyphenyl)ethylidene]hydrazinecarboximidamide hydrochloride] | – | – | > 10000 nM | 0.5% | –
N=C(N)NN=Cc1ccnc2ccccc12 [2-[(4-quinolinyl)methylene]hydrazinecarboximidamide hydrochloride] | – | – | 3400 nM | – | –
CC(=NNC(=N)N)c1cccc(-c2cc(C)n(C)c(=N)n2)c1 [2-[[3-(3,4-dimethyl-2(3H)-imino-6-pyrimidinyl)phenyl]ethylidene]hydrazinecarboximidamide hydrochloride hydroiodide] | – | – | – | – | IC50 (P. falciparum [2]; [5]): 1050 nM
CC(=NNC(=N)N)c1ccc(-c2cc(C)n(C)c(=N)n2)cc1 [2-[[4-(3,4-dimethyl-2(3H)-imino-6-pyrimidinyl)phenyl]ethylidene]hydrazinecarboximidamide hydrochloride hydroiodide] | – | – | – | – | IC50 (P. falciparum [2]; [5]): 600 nM
C=CCNc1nc2c(s1)c(C)c(O)c1ccccc12.Cl [4-methyl-2-(2-propenylamino)naphtho[1,2-d]thiazol-5-ol monohydrochloride] | 6300 nM | 0.4% | – | – | –
